Like-named read-outs stand apart in the source and are kept apart here.
How the values were obtained:
D. melanogaster Or42a = biological target: T1, D. melanogaster Or42a (Drosophila melanogaster, UniProt Q9V9I2); experiment: single sensillum recording, at1 empty neuron; format: cell-based; conditions: bound given for three odorants together
T1 construct: full length UAS transgene in D. melanogaster at1 OSNs (Or67d-Gal4 null background), endogenous Orco; EC50 from native pb1a OSNs; with Odorant receptor coreceptor (Drosophila melanogaster)
T1 sequence (Q9V9I2 1-406): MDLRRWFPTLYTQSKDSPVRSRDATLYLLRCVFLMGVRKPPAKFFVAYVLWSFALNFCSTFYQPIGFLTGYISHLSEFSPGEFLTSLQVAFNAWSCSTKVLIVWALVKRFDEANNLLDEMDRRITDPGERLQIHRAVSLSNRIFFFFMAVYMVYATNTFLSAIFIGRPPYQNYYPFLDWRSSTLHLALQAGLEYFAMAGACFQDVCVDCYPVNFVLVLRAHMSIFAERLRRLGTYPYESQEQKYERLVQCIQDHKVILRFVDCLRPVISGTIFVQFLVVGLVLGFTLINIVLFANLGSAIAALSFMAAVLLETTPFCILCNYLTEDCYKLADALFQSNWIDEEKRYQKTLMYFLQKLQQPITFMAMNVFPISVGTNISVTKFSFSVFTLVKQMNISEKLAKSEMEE
T1 sequence (Q9VNB5 1-486 partner): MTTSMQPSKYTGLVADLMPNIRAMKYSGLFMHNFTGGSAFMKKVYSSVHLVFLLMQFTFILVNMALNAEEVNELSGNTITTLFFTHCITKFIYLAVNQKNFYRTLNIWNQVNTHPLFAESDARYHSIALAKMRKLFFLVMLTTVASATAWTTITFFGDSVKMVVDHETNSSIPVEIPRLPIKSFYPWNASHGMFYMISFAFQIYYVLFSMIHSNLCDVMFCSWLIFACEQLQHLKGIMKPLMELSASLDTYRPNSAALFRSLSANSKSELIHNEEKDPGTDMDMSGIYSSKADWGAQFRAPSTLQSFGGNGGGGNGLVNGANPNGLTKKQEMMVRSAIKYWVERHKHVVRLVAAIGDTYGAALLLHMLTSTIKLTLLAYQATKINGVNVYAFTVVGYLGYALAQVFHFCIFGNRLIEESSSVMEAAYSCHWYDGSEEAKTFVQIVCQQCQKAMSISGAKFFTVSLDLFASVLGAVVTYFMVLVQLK

S. flava Or42a2 = biological target: T2, S. flava Or42a2 (Scaptomyza flava, UniProt Z9B9G2NIU8); experiment: single sensillum recording, at1 empty neuron; format: cell-based; conditions: volatile stimulus 1:100 vol/vol in mineral oil
T2 construct: full coding region (UTRs removed) in UAST-attB, attP40 site; D. melanogaster at1 OSNs (Or67d null), host Orco; with Odorant receptor coreceptor (Drosophila melanogaster, endogenous in host neuron)
T2 sequence (Z9B9G2NIU8 1-404): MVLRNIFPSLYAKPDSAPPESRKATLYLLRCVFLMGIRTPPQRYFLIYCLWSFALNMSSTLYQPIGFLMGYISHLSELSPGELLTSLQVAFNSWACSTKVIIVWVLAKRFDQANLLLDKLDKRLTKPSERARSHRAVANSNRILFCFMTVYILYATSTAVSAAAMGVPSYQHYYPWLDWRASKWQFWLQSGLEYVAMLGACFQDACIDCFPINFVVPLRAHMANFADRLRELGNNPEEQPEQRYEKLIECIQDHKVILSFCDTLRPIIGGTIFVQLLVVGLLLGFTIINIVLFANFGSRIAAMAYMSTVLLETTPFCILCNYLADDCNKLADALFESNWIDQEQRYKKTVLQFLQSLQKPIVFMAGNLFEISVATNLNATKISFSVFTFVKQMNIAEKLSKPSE
T2 sequence (Q9VNB5 1-486 partner): T1 sequence (Q9VNB5 1-486 partner)

S. flava Or42a3 [1] = biological target: T3, S. flava Or42a3 (Scaptomyza flava, UniProt Z9ZJ76RJY6); experiment: single sensillum recording, at1 empty neuron; format: cell-based
T3 construct: full coding region (UTRs removed) in UAST-attB, attP40 site; D. melanogaster at1 OSNs (Or67d null), host Orco; with Odorant receptor coreceptor (Drosophila melanogaster, endogenous in host neuron)
T3 sequence (Z9ZJ76RJY6 1-407): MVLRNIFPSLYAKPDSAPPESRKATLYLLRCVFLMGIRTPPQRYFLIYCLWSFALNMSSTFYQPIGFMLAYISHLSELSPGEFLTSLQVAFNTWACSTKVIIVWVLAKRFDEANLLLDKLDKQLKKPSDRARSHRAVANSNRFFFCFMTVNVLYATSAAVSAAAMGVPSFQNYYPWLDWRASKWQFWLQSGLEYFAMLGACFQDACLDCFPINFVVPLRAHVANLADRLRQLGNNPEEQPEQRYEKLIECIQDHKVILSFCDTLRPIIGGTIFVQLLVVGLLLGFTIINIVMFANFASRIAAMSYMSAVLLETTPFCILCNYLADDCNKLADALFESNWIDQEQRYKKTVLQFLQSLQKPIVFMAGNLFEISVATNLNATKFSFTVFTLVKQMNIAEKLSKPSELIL
T3 sequence (Q9VNB5 1-486 partner): T1 sequence (Q9VNB5 1-486 partner)

S. pallida Or42a2 = biological target: T4, S. pallida Or42a2 (Scaptomyza pallida, UniProt Z9QWX1R862); experiment: single sensillum recording, at1 empty neuron; format: cell-based; conditions: bound given for three odorants together
T4 construct: full coding region in UAST-attB, attP40 site; D. melanogaster at1 OSNs (Or67d null), host Orco; with Odorant receptor coreceptor (Drosophila melanogaster, endogenous in host neuron)
T4 sequence (Z9QWX1R862 1-406): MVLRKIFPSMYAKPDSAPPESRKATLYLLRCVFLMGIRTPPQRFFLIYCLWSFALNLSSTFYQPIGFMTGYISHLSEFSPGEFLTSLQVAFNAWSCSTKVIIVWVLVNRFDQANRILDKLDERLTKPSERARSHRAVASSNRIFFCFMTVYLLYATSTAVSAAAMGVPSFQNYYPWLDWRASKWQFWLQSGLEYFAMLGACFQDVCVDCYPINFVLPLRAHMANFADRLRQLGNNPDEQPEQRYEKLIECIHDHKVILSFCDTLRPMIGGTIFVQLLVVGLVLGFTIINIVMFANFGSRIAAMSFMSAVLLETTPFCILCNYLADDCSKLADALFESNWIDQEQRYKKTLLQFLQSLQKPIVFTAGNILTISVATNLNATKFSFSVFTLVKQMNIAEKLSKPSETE
T4 sequence (Q9VNB5 1-486 partner): T1 sequence (Q9VNB5 1-486 partner)

S. flava Or42a4 = biological target: T5, S. flava Or42a4 (Scaptomyza flava, UniProt Z9LG74I6Y6); experiment: single sensillum recording, at1 empty neuron; format: cell-based
T5 construct: full coding region (UTRs removed) in UAST-attB, attP40 site; D. melanogaster at1 OSNs (Or67d null), host Orco; with Odorant receptor coreceptor (Drosophila melanogaster, endogenous in host neuron)
T5 sequence (Z9LG74I6Y6 1-404): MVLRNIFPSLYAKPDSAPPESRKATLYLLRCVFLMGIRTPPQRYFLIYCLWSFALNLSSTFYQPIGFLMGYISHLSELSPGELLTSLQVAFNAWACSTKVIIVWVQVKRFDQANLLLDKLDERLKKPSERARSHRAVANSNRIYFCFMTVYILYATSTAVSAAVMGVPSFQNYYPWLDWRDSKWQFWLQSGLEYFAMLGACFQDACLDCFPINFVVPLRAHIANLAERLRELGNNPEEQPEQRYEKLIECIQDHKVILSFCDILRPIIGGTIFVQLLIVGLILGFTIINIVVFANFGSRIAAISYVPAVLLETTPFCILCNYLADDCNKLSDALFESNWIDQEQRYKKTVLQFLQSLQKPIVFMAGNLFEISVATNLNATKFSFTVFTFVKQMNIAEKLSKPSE
T5 sequence (Q9VNB5 1-486 partner): T1 sequence (Q9VNB5 1-486 partner)

S. flava Or42a3 [2] = conditions: heterozygous UAS transgene, Fig. 8 legend prints S301P
[3] = volatile stimulus 1:100 vol/vol in mineral oil
[4] = volatile stimulus 1:100 vol/vol in DMSO

| Compound | spikes/s (D. melanogaster Or42a; [3]) [spikes/s] | spikes/s (S. flava Or42a3 [1]; [3]) | spikes/s (S. pallida Or42a2; [3]) [spikes/s] | spikes/s (S. flava Or42a4; [3]) | further results |
| --- | --- | --- | --- | --- | --- |
| C=CCN=C=S [AITC, allyl isothiocyanate] | > 79 | S. flava Or42a3 or S. flava Or42a4 were also very sensitive to AITC and trans-2-hexenal | > 96 | S. flava Or42a3 or S. flava Or42a4 were also very sensitive to AITC and trans-2-hexenal | spikes/s (S. flava Or42a2): S. flava Or42a2 was only activated by AITC |
| CCCCN=C=S [BITC, butyl ITC] | – | – | – | – | spikes/s (S. flava Or42a3 [2]; [3]): The A181D S307P variant and the two S. flava paralogs showed similar moderate responses to BITC |
| CCC/C=C/C=O [trans-2-hexenal] | > 79 | S. flava Or42a3 or S. flava Or42a4 were also very sensitive to AITC and trans-2-hexenal | > 96 | S. flava Or42a3 or S. flava Or42a4 were also very sensitive to AITC and trans-2-hexenal | – |
| CCC1CCC(=O)O1 (stereo not drawn) [γ-hexalactone] | – | – | – | – | spikes/s (D. melanogaster Or42a; [4]): > 79 spikes/s; spikes/s (S. flava Or42a3 [2]; [4]): at1 population responses to BITC (white bars) and to γ-hexalactone (gray bars); spikes/s (S. flava Or42a3 [1]; [4]): S. flava Or42a3 showed a moderate response to γ-hexalactone; spikes/s (S. pallida Or42a2; [4]): > 96 spikes/s; spikes/s (S. flava Or42a4; [4]): < 10 spikes/s |

From paper PMC12448936, “Odorant Receptors Mediating Avoidance of Toxic Mustard Oils in Drosophila melanogaster Are Expanded in Herbivorous Relatives” (Molecular Biology and Evolution, 2025)
